Experimental data: publication PMC9226124, “Macrocycle-stabilization of its interaction with 14-3-3 increases plasma membrane localization and activity of CFTR” (Nature Communications, 2022)
Values joined by “and” are separate entries in the source; they are usually repeats but may differ in a detail not shown here. Equal entries are not always repeated.

How the values were obtained:
Format in all cases: binding
14-3-3β/p53 peptide = biological target: T1, 14-3-3β/p53 peptide (Homo sapiens, UniProt P31946); assay: FP assay of 14-3-3 partner protein peptide, p53; conditions: CY007424 100 μM
T1 construct: His6 (cleaved yes); made in house
T1 sequence (P31946 1-246): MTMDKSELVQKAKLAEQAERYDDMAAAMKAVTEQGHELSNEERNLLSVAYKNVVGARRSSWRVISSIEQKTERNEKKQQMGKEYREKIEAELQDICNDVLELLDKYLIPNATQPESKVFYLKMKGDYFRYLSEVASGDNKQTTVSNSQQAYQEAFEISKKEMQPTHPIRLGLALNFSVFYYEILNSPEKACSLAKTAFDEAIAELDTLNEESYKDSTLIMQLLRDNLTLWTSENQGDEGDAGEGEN
Experimental: (§1) The FITC-labeled peptides were dissolved in FP buffer (10 mM HEPES pH 7.4, 150 mM NaCl, 0.1% Tween20, 1 mg/mL BSA) to a final concentration of 100 nM or 10 nM. For the dose-response assays, a 14-3-3β concentration of 10 μM was used while titrating the compounds in a two-times dilution series and, for the other assays, a dilution series of 14-3-3β was made with constant concentration of compound. The dilution series were made in 384 Corning Black Round Bottom well plates and their polarization was measured with a Tecan Infinite F500 plate reader (ex. = 485 nm, em. = 535 nm). The method of fitting of the curves was: “log(agonist) vs. response – Variable slope (four parameters)” from GraphPad Prism. The equation is Y = Bottom + (Top-Bottom)/(1 + 10^((LogEC50-X)*HillSlope)).
(§2) Supplementary Figure 2. Stabilization of the interaction between 14-3-3β and a collection of different 14-3-3 partner protein peptides by CY00742 4. […] Background polarization was subtracted from all values, n=3 technical replicates. Source data are provided as a Source Data file.
(§3) (1 picture or pasted object on this page, not shown here)

14-3-3β/IRS1 peptide = biological target: T2, 14-3-3β/IRS1 peptide (Homo sapiens, UniProt P31946); assay: FP assay of 14-3-3 partner protein peptide, IRS1; conditions: 100 µM compound
T2 construct: His6 (cleaved yes); made in house
T2 sequence (P31946 1-246): T1 sequence (P31946 1-246)
Experimental: as §1, §2, §3

14-3-3β/BAD peptide = biological target: T3, 14-3-3β/BAD peptide (Homo sapiens, UniProt P31946); assay: FP assay of 14-3-3 partner protein peptide, BAD; conditions: for FP signal: BAD peptide, CY007424 100 μM
T3 construct: His6 (cleaved yes); made in house
T3 sequence (P31946 1-246): T1 sequence (P31946 1-246)
Experimental: as §1, §2, §3

- FP signal (14-3-3β/p53 peptide; 14-3-3β 59.6 pM): 4 and 3
- FP signal (14-3-3β/p53 peptide; 14-3-3β 119.2 pM): 4 and 3
- FP signal (14-3-3β/p53 peptide; 14-3-3β 3.8147e-9 M): 4 and 7
- FP signal (14-3-3β/p53 peptide; 14-3-3β 7.62939e-9 M): 7 and 6 and 4
- FP signal (14-3-3β/p53 peptide; 14-3-3β 1.52588e-8 M): 5 and 3 and 4
- FP signal (14-3-3β/p53 peptide; 14-3-3β 3.05176e-8 M): 3 and 5 and 4
- FP signal (14-3-3β/p53 peptide; 14-3-3β 6.10352e-8 M): 10 and 9
- FP signal (14-3-3β/p53 peptide; 14-3-3β 1.2207e-7 M): 13 and 15
- FP signal (14-3-3β/p53 peptide; 14-3-3β 2.44141e-7 M): 15 and 18
- FP signal (14-3-3β/p53 peptide; 14-3-3β 4.88281e-7 M): 20 and 24 and 21
- FP signal (14-3-3β/p53 peptide; 14-3-3β 9.76563e-7 M): 21 and 25 and 23
- FP signal (14-3-3β/p53 peptide; 14-3-3β 1.95313e-6 M): 20 and 22 and 21
- FP signal (14-3-3β/p53 peptide; 14-3-3β 3.90625e-6 M): 21 and 20
- FP signal (14-3-3β/p53 peptide; 14-3-3β 7.8125e-6 M): 24 and 20 and 21
- FP signal (14-3-3β/p53 peptide; 14-3-3β 1.5625e-5 M): 17 and 22 and 25
- FP signal (14-3-3β/p53 peptide; 14-3-3β 3.125e-5 M): 26 and 24 and 29
- FP signal (14-3-3β/p53 peptide; 14-3-3β 6.25e-5 M): 31 and 32 and 34
- FP signal (14-3-3β/p53 peptide; 14-3-3β 0.000125 M): 44 and 45 and 48
- FP signal (14-3-3β/p53 peptide; 14-3-3β 0.00025 M): 66 and 67 and 63
- stabilization of the 14-3-3/IRS1 peptide complex (14-3-3β/IRS1 peptide): some stabilization of the complex
- stabilization of the 14-3-3/BAD peptide complex (14-3-3β/BAD peptide; 100 µM compound): some stabilization of the complex
- FP signal (14-3-3β/BAD peptide; 14-3-3β 2.44141e-7 M): 59.3333
- FP signal (14-3-3β/BAD peptide; 14-3-3β 4.88281e-7 M): 76.3333 and 74.3333 and 80.3333
- FP signal (14-3-3β/BAD peptide; 14-3-3β 9.76563e-7 M): 77.3333 and 83.3333 and 79.3333
- FP signal (14-3-3β/BAD peptide; 14-3-3β 1.95313e-6 M): 81.3333 and 79.3333 and 82.3333
- FP signal (14-3-3β/BAD peptide; 14-3-3β 3.90625e-6 M): 74.3333 and 75.3333
SMILES: N=C(N)NCCCC1NCc2ccccc2Sc2ccccc2CNC(=O)C(Cc2ccc(O)cc2)NC(=O)C(CCCN)NC1=O (centres unmarked) [CY007424]
